Laboratory results as given in patent publication US10696686B2, “Herbicidally active (alkynyl-phenyl)-substituted cyclic dione compounds and derivatives thereof” (Syngenta Limited, priority 2013, dated 2020).

Columns and labels:
Type in all cases: in vivo
[1] = tested on: Echinochloa crus-galli (ECHCG); assay: Biological Example 2 glasshouse assay (IF50 formulation, X-77), post-emergence; conditions: 14 or 15 DAA
Method: (§1) Seeds of a variety of monocotyledonous and dicotyledonous test plants are sown in standard soil in pots. The plants are cultivated for one day (for pre-emergence) or for about 12 days (range=10-13 days) (for post-emergence) under controlled conditions in a glasshouse (warm climate species at 24/18° C., cool climate species at 20/16° C., both at day/night; 16 hours light; 65% humidity). An “instant formulation”, known as the “IF50”, containing 50 g/litre (i.e. 5% w/v) of the “technical” (i.e. unformulated) active ingredient is prepared by dissolving the active ingredient in a mixture of organic solvents and emulsifier, details of which are provided in the Table below. This IF50 is then mixed with a small, variable amount of acetone to aid dissolution, before addition of a 0.2% v/v aqueous solution of the adjuvant X-77 (which is a mixture of alkyl aryl polyoxyethylene glycols and free fatty acids in isopropanol, CAS Registry number 11097-66-8), as the aqueous diluent, to form an aqueous spray solution which contains a predetermined concentration of the active ingredient (which varies depending on the application rate of the active ingredient to the plants) and 0.2% v/v of the adjuvant X-77. This aqueous spray solution is then sprayed onto the plants, after one day's cultivation (for pre-emergence) or after about 12 days' cultivation (for post-emergence).
(§2) The test plants are then grown on, in a glasshouse (greenhouse) under controlled conditions (at either 24/18° C. or 20/16° C. (day/night) as mentioned above; 16 hours light; 65% humidity) and are watered twice daily. Either 14 or 15 days after application of the herbicide (14 or 15 DAA) (for post-emergence), or 20 days after application of the herbicide (20 DAA) (for pre-emergence), the test plants are evaluated visually, and an assessed percentage phytotoxicity score is given for each herbicidal application on each plant species (where 100%=total damage to plant; 0%=no damage to plant). Some of the typical test plants are as follows: Cool climate crop plants: Triticum aestivum (TRZAW, winter wheat), Brassica napus (BRSNN, rape, also called oilseed rape or rapeseed), Beta vulgaris (BEAVA, sugarbeet). Warm climate crop plants: Glycine max (GLXMA, soybean). Cool climate (“cool season”) grassy monocotyledonous weeds: Alopecurus myosuroides (ALOMY), Avena fatua (AVEFA), Lolium perenne (LOLPE), Poa annua (POAAN), Bromus tectorum (BROTE). Warm climate (“warm season”) grassy monocotyledonous weeds: Setaria faberi (SETFA), SORVU (Sorghum bicolor (L.) Moench ssp. Bicolor, or Sorghum vulgare Pers.), Digitaria sanguinalis (DIGSA), Echinochloa crus-galli (ECHCG), Brachiaria plantaginea (BRAPL), Zea mays (ZEAMX, corn, maize, e.g. volunteer corn), Panicum miliaceum (PANMI).

[2] = tested on: Triticum aestivum (TRZAW, winter wheat); assay: as above; conditions: for percentage phytotoxicity score TRZAW: 14 or 15 DAA
Method: as §1, §2

[3] = tested on: Alopecurus myosuroides (ALOMY); assay: as above; conditions: 14 or 15 DAA
Method: as §1, §2

[4] = tested on: Beta vulgaris (BEAVA, sugarbeet); assay: as above; conditions: for percentage phytotoxicity score BEAVA: post-emergence, 14 or 15 DAA
Method: as §1, §2

Setaria faberi (SETFA) = assay: as above; conditions: 14 or 15 DAA
Method: as §1, §2

Lolium perenne (LOLPE) = assay: as above; conditions: 14 or 15 DAA
Method: as §1, §2

[5] = tested on: Brachiaria plantaginea (BRAPL); assay: as above; conditions: 14 or 15 DAA
Method: as §1, §2

Avena fatua (AVEFA) = assay: as above; conditions: 14 or 15 DAA
Method: as §1, §2

[6] = tested on: Glycine max (GLXMA, soybean); assay: as above; conditions: for percentage phytotoxicity score GLXMA: post-emergence, 14 or 15 DAA
Method: as §1, §2

[7] = tested on: Brassica napus (BRSNN, rape); assay: as above; conditions: 14 or 15 DAA
Method: as §1, §2

[8] = tested on: Zea mays (ZEAMX, corn, maize, e.g. volunteer corn); assay: as above; conditions: 14 or 15 DAA
Method: as §1, §2

[9] = tested on: SORVU (Sorghum bicolor (L.) Moench ssp. Bicolor, or Sorghum vulgare Pers.); assay: as above; conditions: 14 or 15 DAA
Method: as §1, §2

[10] = tested on: Digitaria sanguinalis (DIGSA); assay: as above; conditions: 14 or 15 DAA
Method: as §1, §2

[11] = tested on: grassy (in particular warm climate grassy) monocotyledonous weeds; assay: Post-emergence herbicidal activity, summary statements on Biological Examples 1 to 3; conditions: applied at about 250 g/ha post-emergence; Biological Examples 1 and 2
Method: Seeds of a variety of test plant species were sown in standard soil ** in pots. After cultivation for one day (pre-emergence) or after 8 days cultivation (post-emergence) under controlled conditions in a glasshouse (at 24/16° C., day/night; 14 hours light; 65% humidity), the plants were sprayed with an aqueous spray solution derived from the formulation of the technical active ingredient (the test herbicide) in acetone/water (50:50) solution containing 0.5% Tween 20 (polyoxyethylene sorbitan monolaurate, CAS Reg. No. 9005-64-5). The test plants were then grown on under controlled conditions in a glasshouse (at 24/16° C., day/night; 14 hours light; 65% humidity) and watered twice daily. 13 Days after application of the test herbicide, for pre- and post-emergence, the test was evaluated visually for percentage phytotoxicity to each plant (where 100%=total damage to plant; 0%=no damage to plant). Generally, each test herbicide is only tested on 1 plant per plant species for each application rate tested and for each application timing. ** The “standard soil” in Biological Example 1 is usually a “sand” or “sandy loam” type of soil.
Seeds of a variety of monocotyledonous and dicotyledonous test plants are sown in standard soil in pots. The plants are cultivated for one day (for pre-emergence) or for about 12 days (range=10-13 days) (for post-emergence) under controlled conditions in a glasshouse (warm climate species at 24/18° C., cool climate species at 20/16° C., both at day/night; 16 hours light; 65% humidity). An “instant formulation”, known as the “IF50”, containing 50 g/litre (i.e. 5% w/v) of the “technical” (i.e. unformulated) active ingredient is prepared by dissolving the active ingredient in a mixture of organic solvents and emulsifier, details of which are provided in the Table below. […]
The test plants are then grown on, in a glasshouse (greenhouse) under controlled conditions (at either 24/18° C. or 20/16° C. (day/night) as mentioned above; 16 hours light; 65% humidity) and are watered twice daily. Either 14 or 15 days after application of the herbicide (14 or 15 DAA) (for post-emergence), or 20 days after application of the herbicide (20 DAA) (for pre-emergence), the test plants are evaluated visually, and an assessed percentage phytotoxicity score is given for each herbicidal application on each plant species (where 100%=total damage to plant; 0%=no damage to plant). […]

[12] = tested on: Echinochloa crus-galli (ECHCG); assay: Biological Example 1B glasshouse assay, pre-emergence application; conditions: 250 g/ha, 13 days after application
Outline: (§3)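 Potted plants receive the test herbicide as a spray from an acetone/water 50:50 solution with 0.5% Tween 20, either one day after sowing or after eight days of growth. Scoring is visual percentage injury 13 days post-application, generally on a single plant per species and rate.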

[13] = tested on: Alopecurus myosuroides (ALOMY); assay: as above; conditions: 250 g/ha, 13 days after application
Outline: as §3

[14] = 125 g/ha (rate taken from row order)
[15] = 250 g/ha (rate taken from row order)
[16] = e.g. when applied at 30 g/ha post-emergence, see Biological Example 2

## C#CCC1CC(=O)C(c2c(F)cc(C#CC)cc2OC)C1=O (centres unmarked) [Compound A8, 2-(2-fluoro-6-methoxy-4-prop-1-ynyl-phenyl)-4-prop-2-ynyl-cyclopentane-1,3-dione]
[1]; [14]
  percentage phytotoxicity score ECHCG: 100%
[1]; [15]
  percentage phytotoxicity score ECHCG: 100%
[2]; 125 g/ha
  percentage phytotoxicity score TRZAW: 50%
[2]; 250 g/ha
  percentage phytotoxicity score TRZAW: 70%
[2]; relative to herbicidal activity against warm-climate grassy weeds, Biological Example 2
  phytotoxicity against wheat (in words): medium or reasonably low phytotoxicity
[3]; 125 g/ha
  percentage phytotoxicity score ALOMY: 50%
[3]; 250 g/ha
  percentage phytotoxicity score ALOMY: 70%
[4]; [16]
  phytotoxicity against sugarbeet (in words): low or reasonably low phytotoxicity
[4]; 125 g/ha
  percentage phytotoxicity score BEAVA: 10%
[4]; 250 g/ha
  percentage phytotoxicity score BEAVA: 10%
Setaria faberi (SETFA); [14]
  percentage phytotoxicity score SETFA: 90%
Setaria faberi (SETFA); [15]
  percentage phytotoxicity score SETFA: 100%
Lolium perenne (LOLPE); [14]
  percentage phytotoxicity score LOLPE: 30%
Lolium perenne (LOLPE); [15]
  percentage phytotoxicity score LOLPE: 80%
[5]; [14]
  percentage phytotoxicity score BRAPL: 100%
[5]; [15]
  percentage phytotoxicity score BRAPL: 100%
Avena fatua (AVEFA); [14]
  percentage phytotoxicity score AVEFA: 30%
Avena fatua (AVEFA); [15]
  percentage phytotoxicity score AVEFA: 70%
[6]; [16]
  phytotoxicity against soybean (in words): low or reasonably low phytotoxicity
[6]; 125 g/ha
  percentage phytotoxicity score GLXMA: 10%
[6]; 250 g/ha
  percentage phytotoxicity score GLXMA: 30%
[7]; 125 g/ha
  percentage phytotoxicity score BRSNN: 40%
[7]; 250 g/ha
  percentage phytotoxicity score BRSNN: 60%
[8]; 125 g/ha
  percentage phytotoxicity score ZEAMX: 100%
[8]; 250 g/ha
  percentage phytotoxicity score ZEAMX: 100%
[9]; [14]
  percentage phytotoxicity score SORVU: 100%
[9]; [15]
  percentage phytotoxicity score SORVU: 100%
[10]; [14]
  percentage phytotoxicity score DIGSA: 100%
[10]; [15]
  percentage phytotoxicity score DIGSA: 100%
[11]
  post-emergent herbicidal potency against grassy monocotyledonous weeds (in words): potent post-emergent herbicides
[12]
  Percentage phytotoxicity ECHCG: 100%
[13]
  Percentage phytotoxicity ALOMY: 90%
